Laboratory results reported in publication PMC10756276, “Highly specific σ2R/TMEM97 ligand FEM-1689 alleviates neuropathic pain and inhibits the integrated stress response” (Proceedings of the National Academy of Sciences of the …, 2023).
Entries after “also recorded” stand apart in the source; their conditions may differ. Like-named read-outs stand apart in the source and are kept apart here.

Experiments:
[1] = system: p-eIF2α, eIF2A, p-PERK, BiP in HEK293T cells; experiment: Western blot of ISR-related proteins in HEK293T cells; format: cell-based, human; settings: HEK293T, 0.1, 1, 10, 100 nM, 16 h (overnight)
Experimental: Huma n e mbryon ic kidn ey (HEK) 293T ce lls (ATCC # C RL- 321 6) were ge nerously dona ted by th e Ca mpb ell Lab (UT Dallas). Cell stock s were previously fr ozen at 1 million cells/ml in 90% fetal bov ine s erum (F BS, ThermoFisher #SH300880340) and 10% DMSO. Cells were grown in complete medium (10% FBS, 1% Pen- Strep in DMEM/F12 + GlutaMax (Gibco #10565- 018) in T-75 flasks (Greiner Bio- One #658175). Cells were maintained at 37 °C with 5% CO2 and passaged twice before being plated onto either 96-well or 6-well plates for ICC/spectrophotometry and western blotting, respectively. Cells were counted using the TC20 automated cell counter (Bio- R ad #1450102) using a 1:1 dilution of trypan blue (Gibco #15250061).
Concentr ations were transformed to […] values and data w as fit to a non- linear regression curve (inhibitor vs response, varia ble slop e , four p aram eters) constrain ed at top at 1 00, bott om at p -eIF2α levels at 300nM, […]
HEK cells were plated at 60,000 cells per well onto six-well plates (ThermoFisher # 351146) for 24 hours before being treated w ith F EM- 1689 overnight. Protein extractions and western blotting w as perfor med as previous ly published (10) . In brief, media fr om the cells was removed and cells were washed once with 1X
PBS. Cells were lysed in the well with radioimmunoprecipitation assay (RIPA) buffer consisting of 25 mM Tris, 150 mM NaCl, 0.1% SDS, 0.5% Na deoxycholate, 1% Triton X-100 with pr otease and phosphatas e inhibitor cocktails (Sigma Aldrich P8340, P5726, P0044 – 1:100 each). Cells were centr ifuged at 4 °C at 14,000 rpm for 10 min. The supernatant was used for downstream analysis. Protein was quantif ied using the Pierce BC A Protein Assay kit (Thermo Scientific, #23225) according to the manufacturer’s instructions.
Prote in samp les were de na tured usin g 4X L aem mli Sa mple buff er (BioR ad #1 610 747) and h eat ed at 95 °C for 5 min. 20 µg of protein samples were loaded onto 4- 20% Stain- Free Criterion TGX gels (BioRad #5678094). Gels were run in Tris/Glycine/SDS running buffer ( BioRad #1610772) at 120V for roughly 1.5 hours. St ain- Free gels wer e activated for 5 min pr ior to t he transf er step. Protein was transferred for 10 min onto low fluorescence poly vinylidene difluor ide (PVDF ) using a TransBlot Transfer kit (BioRad #1704275) and a Transblot Turbo transfer system (BioRad). Onc e transferred, total protein was imaged immediately using a ChemiDoc MP system (BioRad). Blots were allowed to dry for 5 min and were blocked with 5% non- fat milk in Tr is buffered saline (T BS)-Tween 20 (0.05%). Antibodies were diluted in 1% non- fat m ilk in TBS- Twe en 20. Primary ant ibo dies used in this st udy w ere: p- eIF 2α (1:1000, C ell Signaling #3398), t-eIF2α […]

[2] = target: hERG (Homo sapiens, UniProt Q12809); experiment: PDSP competitive binding assay (safety/nuisance target)
[3] = target: D3 (Homo sapiens, UniProt P35462); experiment: PDSP competitive binding assay; settings: 10 µM test article; read-out: Ki: primary assay inhibition of radioligand binding, D3
[4] = system: p-eIF2α in mouse DRG neurons; experiment: p-eIF2α immunocytochemistry in cultured DRG neurons; format: cell-based; settings: for p-eIF2α levels: ISRIB 200 nM
Experimental: The ICC protocol was based on a previously published protocol ([76]). […] Cells were blocked with 10% normal goat serum (NGS) in PBS-triton X (0.1%). […] Antibodies were incubated at 4 °C overnight. […] It was washed with PBS twice. […] Images were analyzed using Olympus CellSens. […] Number of cells analyzed are detailed in SI Appendix, Tables S3 and S4. […]
T his BSA gradient containing the cells was centrifuged at 900g for 5 min at room temperatur e.
The pellet containing the cells was resuspended in Br ainPhys media (STEMCell #05790) containing 2% […]
1% Gluta Max (Gibco # 350 5 0061). Hu man DRG ne uron s were plated a nd grown o n glass coverslips coate d with po ly-D-lysine (Sigma #P7405). C ultured D RG neurons were plated for 24 hours before being treated.
Methylglyoxal (Sigma- Aldrich #M0252) and F EM- 1689 were serially diluted in media.
Mouse samples - DRG cultures […]
anesthesia and decapitated. […]
section above with minor differences.
Mouse DRG neurons were grown in
SAS-0132 and DKR-1677 were […]
dissolved in 100% DMSO to a final concentr ation of 200mM and stored at - 20 °C. and DKR-1677 were serially diluted in media. Untreated media was completely replaced with media containing each compound. […]
Slides were […]
incubated with 1:2 diluted hydrogen peroxide in distilled water for 10 min at r oom temper ature and washed twice in distilled water. The protease IV was applied to each section and incubated for 5 min at room temperature. Slides were w ashed twice in 1X PBS and RNA scope was performed immediately. A mixture of probes - Tmem97, Scn10a, and Fabp7 – was hybridized for 2 hours at 40 °C in a humidity control tray

[5] = target: D1 (Homo sapiens, UniProt P21728); experiment: PDSP competitive binding assay; settings: 10 µM test article; read-out: Ki: primary assay inhibition of radioligand binding, D1
[6] = target: T1, H3 (Homo sapiens, UniProt Q9Y5N1); experiment: PDSP competitive binding assay; settings: 10 µM test article; read-out: Ki: primary assay inhibition of radioligand binding, H3
T1 construct: purchased NIMH Psychoactive Drug Screening Program (PDSP), University of North Carolina at Chapel Hill

[7] = target: Beta2 (Homo sapiens, UniProt P07550); experiment: PDSP competitive binding assay; settings: 10 µM test article; read-out: Ki: primary assay inhibition of radioligand binding, Beta2
[8] = target: σ1R (Homo sapiens, UniProt Q99720); experiment: Competition binding with [3H]-(+)-pentazocine (NIMH PDSP)
Sequence of σ1R (Q99720 whole entry): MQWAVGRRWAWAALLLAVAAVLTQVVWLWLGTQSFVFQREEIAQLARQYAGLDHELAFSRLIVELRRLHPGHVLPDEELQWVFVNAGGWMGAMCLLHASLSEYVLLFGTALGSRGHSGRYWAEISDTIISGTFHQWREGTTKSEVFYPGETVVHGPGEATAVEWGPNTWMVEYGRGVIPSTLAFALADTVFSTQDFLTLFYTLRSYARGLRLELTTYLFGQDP

Sequence of hERG (Q12809 whole entry): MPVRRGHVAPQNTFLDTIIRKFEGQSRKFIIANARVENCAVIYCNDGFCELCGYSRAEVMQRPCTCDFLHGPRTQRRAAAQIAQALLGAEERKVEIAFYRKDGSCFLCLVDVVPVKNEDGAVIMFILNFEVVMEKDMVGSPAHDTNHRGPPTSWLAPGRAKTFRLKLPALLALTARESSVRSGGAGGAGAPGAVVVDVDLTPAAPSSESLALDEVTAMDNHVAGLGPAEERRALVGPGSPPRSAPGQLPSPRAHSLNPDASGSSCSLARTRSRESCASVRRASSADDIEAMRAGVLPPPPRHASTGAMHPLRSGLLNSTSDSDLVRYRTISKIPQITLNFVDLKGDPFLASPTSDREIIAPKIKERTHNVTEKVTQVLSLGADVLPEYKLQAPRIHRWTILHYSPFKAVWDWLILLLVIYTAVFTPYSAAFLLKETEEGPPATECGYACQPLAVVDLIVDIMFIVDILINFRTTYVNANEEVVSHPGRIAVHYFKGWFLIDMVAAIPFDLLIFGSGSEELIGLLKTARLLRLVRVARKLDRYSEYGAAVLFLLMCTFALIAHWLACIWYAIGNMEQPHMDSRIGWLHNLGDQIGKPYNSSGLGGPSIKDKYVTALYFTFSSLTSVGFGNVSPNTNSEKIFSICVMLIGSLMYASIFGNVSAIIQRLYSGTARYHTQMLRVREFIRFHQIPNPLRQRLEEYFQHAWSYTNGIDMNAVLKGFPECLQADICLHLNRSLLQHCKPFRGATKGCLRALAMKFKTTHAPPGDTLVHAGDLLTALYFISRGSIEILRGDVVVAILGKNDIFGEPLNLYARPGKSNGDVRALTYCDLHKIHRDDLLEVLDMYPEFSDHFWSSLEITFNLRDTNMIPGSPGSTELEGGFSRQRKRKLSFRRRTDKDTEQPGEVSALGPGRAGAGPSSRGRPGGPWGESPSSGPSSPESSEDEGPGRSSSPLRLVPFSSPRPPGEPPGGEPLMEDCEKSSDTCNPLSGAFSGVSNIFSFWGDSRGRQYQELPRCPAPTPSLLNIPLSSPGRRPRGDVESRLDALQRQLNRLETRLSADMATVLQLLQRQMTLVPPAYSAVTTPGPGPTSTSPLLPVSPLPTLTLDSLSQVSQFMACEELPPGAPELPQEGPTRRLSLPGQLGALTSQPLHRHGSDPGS
Sequence of Beta2 (P07550 whole entry): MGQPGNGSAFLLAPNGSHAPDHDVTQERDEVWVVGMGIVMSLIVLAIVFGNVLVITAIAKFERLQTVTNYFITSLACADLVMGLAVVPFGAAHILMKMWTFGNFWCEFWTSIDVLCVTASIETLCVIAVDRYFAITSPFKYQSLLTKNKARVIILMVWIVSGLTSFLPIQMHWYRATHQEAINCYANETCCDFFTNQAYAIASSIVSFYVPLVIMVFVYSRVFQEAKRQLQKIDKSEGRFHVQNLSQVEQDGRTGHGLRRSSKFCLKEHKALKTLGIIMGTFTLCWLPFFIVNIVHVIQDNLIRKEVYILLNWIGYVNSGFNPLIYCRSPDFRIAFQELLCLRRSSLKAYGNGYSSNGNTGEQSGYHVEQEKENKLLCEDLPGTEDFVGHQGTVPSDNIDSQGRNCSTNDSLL
Sequence of D3 (P35462 whole entry): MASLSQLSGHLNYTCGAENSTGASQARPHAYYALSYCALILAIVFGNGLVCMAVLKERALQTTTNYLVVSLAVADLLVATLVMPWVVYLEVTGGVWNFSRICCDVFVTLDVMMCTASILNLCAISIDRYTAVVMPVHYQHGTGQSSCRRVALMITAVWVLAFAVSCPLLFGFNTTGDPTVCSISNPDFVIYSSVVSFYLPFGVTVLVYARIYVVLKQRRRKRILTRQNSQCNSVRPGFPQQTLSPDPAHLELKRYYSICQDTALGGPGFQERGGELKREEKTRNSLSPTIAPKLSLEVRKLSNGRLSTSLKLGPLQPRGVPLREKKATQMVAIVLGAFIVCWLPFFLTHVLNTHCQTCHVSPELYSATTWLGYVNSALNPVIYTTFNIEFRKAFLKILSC
Sequence of D1 (P21728 whole entry): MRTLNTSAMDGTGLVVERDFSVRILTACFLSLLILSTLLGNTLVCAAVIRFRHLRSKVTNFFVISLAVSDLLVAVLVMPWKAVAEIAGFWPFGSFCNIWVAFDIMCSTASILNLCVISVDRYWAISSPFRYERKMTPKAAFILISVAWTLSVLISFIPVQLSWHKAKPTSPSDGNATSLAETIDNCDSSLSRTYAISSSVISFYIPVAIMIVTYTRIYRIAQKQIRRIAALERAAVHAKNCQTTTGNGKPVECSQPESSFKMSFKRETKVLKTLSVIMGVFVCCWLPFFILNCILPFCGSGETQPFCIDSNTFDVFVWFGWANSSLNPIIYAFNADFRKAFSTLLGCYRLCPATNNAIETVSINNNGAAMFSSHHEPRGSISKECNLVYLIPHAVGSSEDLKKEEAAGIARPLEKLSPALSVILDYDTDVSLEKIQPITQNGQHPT
T1 sequence (Q9Y5N1 whole entry): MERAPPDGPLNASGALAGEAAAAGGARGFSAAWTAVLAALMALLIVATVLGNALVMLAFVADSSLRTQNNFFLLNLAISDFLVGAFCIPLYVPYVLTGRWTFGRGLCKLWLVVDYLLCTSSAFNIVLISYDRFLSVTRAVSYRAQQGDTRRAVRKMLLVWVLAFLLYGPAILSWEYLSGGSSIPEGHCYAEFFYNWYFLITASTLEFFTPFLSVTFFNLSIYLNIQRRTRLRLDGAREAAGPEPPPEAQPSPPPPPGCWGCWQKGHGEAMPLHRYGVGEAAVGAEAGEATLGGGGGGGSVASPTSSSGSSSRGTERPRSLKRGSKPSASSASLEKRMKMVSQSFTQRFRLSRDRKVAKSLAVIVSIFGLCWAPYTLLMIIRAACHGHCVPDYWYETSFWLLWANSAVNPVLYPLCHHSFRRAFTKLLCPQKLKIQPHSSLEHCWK

SMILES: OCCCN1CC[C@@H]2C[C@H]1c1cc(-c3ccc(C(F)(F)F)cc3)ccc12 [FEM-1689]
- BiP level (western blot) [1]: remained stable; also recorded: remained unchanged
- eIF2A level (western blot) [1]: concentration-dependent reduction; also recorded: significant reduction
- p-PERK level (western blot) [1]: concentration-dependent reduction; also recorded: significant reduction
- p-eIF2α level (western blot) [1]: concentration-dependent reduction; also recorded: significant reduction
- LogKi, HERG ([2]; dose response curve, given as LogKi with negative sign): -6.08
- Ki ([2]; dose response curve, read-out: Ki, HERG): 839 nM
- Ki ([2]; single determination, read-out: hERG Ki): 839 nM
- inhibition at 10 µM [3]: < 50%
- treatment time of maximal effect on p-eIF2α ([4]; 100 nM, wild-type mouse DRG neurons): 16 h
- half-life (t1/2) at reducing p-eIF2α levels in vitro ([4]; 100 nM, wild-type mouse DRG neurons, 0.5-16 h): 5.0 h
- IC50 ([4]; DRG neuron, wild-type mouse DRG neurons, 16 h): 30 nM
- p-eIF2α levels ([4]; TMEM97KO mouse DRG neurons, 16 h): did not respond
- p-eIF2α levels ([4]; wild-type mouse DRG neurons, 16 h): reduced p-eIF2α levels
- concentration of maximal ISR inhibition (p-eIF2α) ([4]; wild-type mouse DRG neurons, 16 h, comparable to ISRIB 200 nM): 100 nM
- inhibition at 10 µM [5]: < 50%
- inhibition at 10 µM [6]: < 50%
- inhibition at 10 µM [7]: < 50%
- Ki [8]: 206 nM
- selectivity for σ2R/TMEM97 vs σ1R ([8]; ratio of Ki): 10 fold
- Ki ([8]; read-out: σ1R Ki, averages ± SD): 167 ± 54 nM
